Experimental data: ChEMBL document CHEMBL4706558, “Factor XII/XIIa inhibitors: Their discovery, development, and potential indications” (Eur J Med Chem, 2020)
pIC50, pKi: −log10 of the molar value. Blank lines part the entries; values can stand above or below the compound they belong to.

Tests used:
[1] = target: T1, Trypsin (Homo sapiens, UniProt P07477+P07478+P35030); assay: Inhibition of trypsin (unknown origin); type: protein assay
[2] = target: T2, Coagulation factor XII (Homo sapiens, UniProt P00748); assay: Inhibition of human factor 12a
T2 sequence (P00748 whole entry): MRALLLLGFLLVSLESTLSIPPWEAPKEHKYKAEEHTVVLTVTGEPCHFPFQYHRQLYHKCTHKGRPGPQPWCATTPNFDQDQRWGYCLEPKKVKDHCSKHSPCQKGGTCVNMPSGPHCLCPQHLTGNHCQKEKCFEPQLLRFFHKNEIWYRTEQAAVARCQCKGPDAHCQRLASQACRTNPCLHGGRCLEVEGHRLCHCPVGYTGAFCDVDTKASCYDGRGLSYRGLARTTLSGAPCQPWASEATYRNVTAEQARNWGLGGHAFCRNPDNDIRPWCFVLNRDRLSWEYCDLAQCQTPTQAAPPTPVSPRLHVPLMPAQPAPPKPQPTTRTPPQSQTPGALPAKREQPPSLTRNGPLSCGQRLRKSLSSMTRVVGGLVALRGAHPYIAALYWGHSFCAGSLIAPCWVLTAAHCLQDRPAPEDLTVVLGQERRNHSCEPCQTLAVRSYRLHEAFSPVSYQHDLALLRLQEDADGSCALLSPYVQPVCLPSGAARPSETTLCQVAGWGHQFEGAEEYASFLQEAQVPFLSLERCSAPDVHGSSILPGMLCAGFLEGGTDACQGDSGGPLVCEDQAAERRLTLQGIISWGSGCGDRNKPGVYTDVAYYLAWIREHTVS

[3] = target: T2, Coagulation factor XII; assay: Inhibition of human factor 12a using H-D-Pro-Phe-Arg-pNa as substrate by spectrophotometric method
[4] = target: T1, Trypsin; assay: Competitive inhibition of trypsin (unknown origin) using BFSR as substrate; type: protein assay
[5] = target: T2, Coagulation factor XII; assay: Non-competitive inhibition of factor 12a (unknown origin) using BQGR as substrate
[6] = Inhibition of bovine trypsin using BAEE as substrate by Lineweaver-Burk analysis; set-up: species or system Bos taurus
[7] = Inhibition of bovine trypsin using chromogenic substrate by Lineweaver-Burk analysis; set-up: species or system Bos taurus
[8] = target: T2, Coagulation factor XII; assay: Inhibition of human factor 12a using chromogenic substrate by Lineweaver-Burk analysis
[9] = target: T2, Coagulation factor XII; assay: Inhibition of factor 12a (unknown origin)

- Ki [1]: 20 µM
Structure (SMILES): CCCCCCOC(=O)CCCCCNC(=N)N

- pIC50 [2]: 3.99
Structure (SMILES): N=C(N)Nc1ccc(NC(=O)c2cc3cc(Cl)cc(Br)c3oc2=O)cc1

- Ki [1]: 0.8 µM
Structure (SMILES): N=C(N)NCCCCCC(=O)Oc1ccccc1

- pIC50 [2]: 5.22
Structure (SMILES): N=C(N)Nc1ccc(OC(=O)c2cc3cc(CCl)ccc3oc2=O)cc1

- pKi [3]: 6.64
Structure (SMILES): N=C(N)NCCC[C@H](NC(=O)[C@@H]1CCCN1C(=O)[C@H](N)Cc1ccccc1)C(=O)CCl

- Ki [4]: 0.097 µM
- pKi [5]: 7.68
Structure (SMILES): N=C(N)c1ccc2cc(OC(=O)c3ccc(NC4=NCCN4)cc3)ccc2c1 [SEPIMOSTAT]

- pIC50 [2]: 3.82
Structure (SMILES): Cc1ccc2oc(=O)c(C(=O)Nc3ccc(NC(=N)N)cc3)cc2c1

- pKi [6]: 4.23
Structure (SMILES): CCCCCCOC(=O)CCCCCN

- pKi [7]: 7.80
- pKi [8]: 6.98
Structure (SMILES): N=C(N)Nc1ccc(C(=O)Oc2ccc3cc(C(=N)N)ccc3c2)cc1 [NAFAMOSTAT]

- pIC50 [9]: 4.85
Structure (SMILES): Cc1ccc2oc(=O)c(C(=O)Nc3ccc(N)cc3)cc2c1

- pKi [7]: 7.14
- pKi [8]: 5.53
Structure (SMILES): CCOC(=O)c1ccc(OC(=O)CCCCCNC(=N)N)cc1 [GABEXATE]
